In PubChem BioAssay (NCI):
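Step 1: Grow cells in 96-well plates. Step 2: Expose to compound for 48 hours at 5 concentrations. Step 3: Interpolate endpoints linearly; if unreached, use highest concentration. GI50 = concentration required for 50% inhibition of growth. TGI: concentration producing complete growth inhibition.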

What was measured:
Assay in all cases: NCI-60 cell line screen, 48 h
[1] = system: T-47D breast
[2] = system: HT29 colon
[3] = system: MDA-MB-231 breast
[4] = system: SK-MEL-2 melanoma
[5] = system: NCI-H226 lung
[6] = system: A549 NSCLC
[7] = system: HOP-92 NSCLC
[8] = system: HCC-2998 colon
[9] = system: BT-549 breast
[10] = system: SK-OV-3 ovarian
[11] = system: RPMI-8226 leukemia
[12] = system: OVCAR-3 ovarian
[13] = system: CCRF-CEM leukemia
[14] = system: NCI-H522 lung
[15] = system: LOX IMVI melanoma
[16] = system: NCI/ADR-RES ovarian
[17] = system: NCI-H460 lung
[18] = system: MOLT-4 leukemia
[19] = system: HOP-62 NSCLC
[20] = system: K-562 leukemia
[21] = system: SN12C renal
[22] = system: HS 578T breast
[23] = system: 786-0 renal
[24] = system: EKVX NSCLC
[25] = system: SR leukemia
[26] = system: UACC-257 melanoma
[27] = system: M14 melanoma
[28] = system: OVCAR-5 ovarian
[29] = system: NCI-H23 lung
[30] = system: SW-620 colon
[31] = system: DU-145 prostate
[32] = system: MCF7 breast
[33] = system: HCT-15 colon
[34] = system: KM12 colon
[35] = system: U251 CNS
[36] = system: OVCAR-4 ovarian
[37] = system: RXF 393 renal
[38] = system: UO-31 renal
[39] = system: SF-268 CNS
[40] = system: SNB-19 CNS
[41] = system: ACHN renal
[42] = system: MDA-MB-435
[43] = system: COLO 205 colon
[44] = system: SF-539 CNS
[45] = system: MALME-3M melanoma
[46] = system: PC-3 prostate
[47] = system: HL-60(TB) leukemia
[48] = system: IGROV1 ovarian
[49] = system: SK-MEL-28 melanoma
[50] = system: SF-295 CNS
[51] = system: HCT-116 colon
[52] = system: OVCAR-8 ovarian
[53] = system: UACC-62 melanoma
[54] = system: A498 renal
[55] = system: TK-10 renal
[56] = system: SK-MEL-5 melanoma
[57] = system: CAKI-1 renal

Cn1cc(-c2nnc(N)nc2-c2c[nH]c3ccc(F)cc23)c2cc(Br)ccc21
GI50 [1]: 1.91 µM
TGI [1]: 19.9 µM
GI50 [2]: 0.458 µM
TGI [2]: 10.8 µM
GI50 [3]: 2.3 µM
TGI [3]: 16.7 µM
GI50 [4]: 2.06 µM
TGI [4]: 10.5 µM
GI50 [5]: 3.06 µM
TGI [5]: 24.4 µM
GI50 [6]: 2.11 µM
TGI [6]: 46.7 µM
GI50 [7]: 1.7 µM
TGI [7]: 13.1 µM
GI50 [8]: 2.99 µM
TGI [8]: 12.5 µM
GI50 [9]: 2.67 µM
TGI [9]: 17.6 µM
GI50 [10]: 2.53 µM
TGI [10]: 15.1 µM
GI50 [11]: 2.29 µM
TGI [11]: 43.4 µM
GI50 [12]: 1.15 µM
TGI [12]: 9.57 µM
GI50 [13]: 2.29 µM
TGI [13]: > 100 µM
GI50 [14]: 0.933 µM
TGI [14]: 8.28 µM
GI50 [15]: 1.19 µM
TGI [15]: 14 µM
GI50 [16]: 2.25 µM
TGI [16]: 22.9 µM
GI50 [17]: 0.611 µM
TGI [17]: 10.8 µM
GI50 [18]: 1.38 µM
TGI [18]: > 100 µM
GI50 [19]: 1.64 µM
TGI [19]: 14.6 µM
GI50 [20]: 0.453 µM
TGI [20]: > 100 µM
GI50 [21]: 3.12 µM
TGI [21]: 17.4 µM
GI50 [22]: 2.04 µM
TGI [22]: 8.17 µM
GI50 [23]: 3.79 µM
TGI [23]: 22.4 µM
GI50 [24]: 3.02 µM
TGI [24]: 15.8 µM
GI50 [25]: 0.671 µM
TGI [25]: > 100 µM
GI50 [26]: 4.71 µM
TGI [26]: 19.3 µM
GI50 [27]: 1.3 µM
TGI [27]: 12.3 µM
GI50 [28]: 3.15 µM
TGI [28]: 16.7 µM
GI50 [29]: 2.08 µM
TGI [29]: 10.4 µM
GI50 [30]: 0.658 µM
TGI [30]: 14.2 µM
GI50 [31]: 2.91 µM
TGI [31]: 26.9 µM
GI50 [32]: 0.7 µM
TGI [32]: 11.2 µM
GI50 [33]: 0.591 µM
TGI [33]: 13.1 µM
GI50 [34]: 0.875 µM
TGI [34]: 14.6 µM
GI50 [35]: 2.43 µM
TGI [35]: 14.3 µM
GI50 [36]: 2.91 µM
TGI [36]: 13.1 µM
GI50 [37]: 1.38 µM
TGI [37]: 3.88 µM
GI50 [38]: 1.76 µM
TGI [38]: 13.9 µM
GI50 [39]: 2.73 µM
TGI [39]: 20.1 µM
GI50 [40]: 2.56 µM
TGI [40]: 14.8 µM
GI50 [41]: 2.8 µM
TGI [41]: 13.6 µM
GI50 [42]: 0.28 µM
TGI [42]: 0.829 µM
GI50 [43]: 0.64 µM
TGI [43]: 3.94 µM
GI50 [44]: 1.88 µM
TGI [44]: 8.7 µM
GI50 [45]: 1.32 µM
TGI [45]: 16.6 µM
GI50 [46]: 0.991 µM
TGI [46]: 20.6 µM
GI50 [47]: 0.707 µM
TGI [47]: > 100 µM
GI50 [48]: 0.881 µM
TGI [48]: 12.7 µM
GI50 [49]: 2.98 µM
TGI [49]: 17.6 µM
GI50 [50]: 0.792 µM
TGI [50]: 5.08 µM
GI50 [51]: 1.08 µM
TGI [51]: 11.1 µM
GI50 [52]: 2.98 µM
TGI [52]: 20.7 µM
GI50 [53]: 0.65 µM
TGI [53]: 12.6 µM
GI50 [54]: 1.54 µM
TGI [54]: 4.84 µM
GI50 [55]: 5.18 µM
TGI [55]: 38.9 µM
GI50 [56]: 1.15 µM
TGI [56]: 2.71 µM
GI50 [57]: 0.668 µM
TGI [57]: 12.5 µM
